In patent US7138361B2, “Herbicidal heterocycles” (E. I. du Pont de Nemours and Company, priority 2000, dated 2006):

Assays:
Type in all cases: in vivo
[1] = system: cocklebur (Xanthium strumarium); test: Test B postemergence
Procedure, shortened: (§1)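 Greenhouse test: chemicals are formulated in a surfactant-containing non-phytotoxic solvent and applied either preemergence to planted seeds or postemergence to plants 2 to 18 cm tall. Response is rated visually versus controls after 13 to 15 days, 0 meaning no effect and 100 complete control.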

[2] = system: blackgrass (Alopecurus myosuroides); test: Test B postemergence
Procedure, shortened: as §1

[3] = system: crabgrass (Digitaria sanguinalis); test: Test B postemergence; settings: Rate 125 g/ha, scale 0 to 100, 0 no effect, 100 complete control
Procedure, shortened: as §1

Sunflower = test: Test C preemergence; settings: Rate 250 g/ha, scale 0 to 100, 0 no effect, 100 complete control
kochia (Kochia scoparia) = test: Test C preemergence; settings: for Plant response rating (0 to 100), Kochia: Rate 500 g/ha, visual evaluation after 12 to 14 days
Procedure, shortened: (§2)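 Compounds in non-phytotoxic solvent with surfactant applied preemergence to planted seeds and postemergence to plants at 1- to 4-leaf stage (2–18 cm). Kept in greenhouse 12–14 days, then visually rated against controls on a 0 (no effect) to 100 (complete control) scale.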

corn (Zea mays) = test: Test C preemergence; settings: for Plant response rating (0 to 100), Corn: Rate 500 g/ha, visual evaluation after 12 to 14 days
Procedure, shortened: as §2

[4] = system: cocklebur (Xanthium strumarium); test: Test C preemergence; settings: for Plant response rating (0 to 100), Cocklebur: Rate 500 g/ha, visual evaluation after 12 to 14 days
Procedure, shortened: as §2

[5] = system: bermudagrass (Cynodon dactylon); test: Test C preemergence; settings: for Plant response rating (0 to 100 where 0 is no effect and 100 is complete control), Bermudagrass: Rate 500 g/ha, visual evaluation after 12 to 14 days
Procedure, shortened: as §2

[6] = system: morningglory (Ipomoea hederacea); test: Test C preemergence; settings: for Plant response rating (0 to 100), Morningglory: Rate 500 g/ha, visual evaluation after 12 to 14 days
Procedure, shortened: as §2

[7] = system: goosegrass (Eleusine indica); test: Test C preemergence; settings: for Plant response rating (0 to 100), Goosegrass: Rate 500 g/ha, visual evaluation after 12 to 14 days
Procedure, shortened: as §2

soybean (Glycine max) = test: Test C preemergence; settings: for Plant response rating (0 to 100), Soybean: Rate 500 g/ha, visual evaluation after 12 to 14 days
Procedure, shortened: as §2

Nightshade = test: Test C preemergence
[8] = system: common ragweed (Ambrosia elatior); test: Test C preemergence; settings: for Plant response rating (0 to 100), Ragweed, Common: Rate 500 g/ha, visual evaluation after 12 to 14 days
Procedure, shortened: as §2

[9] = system: yellow nutsedge (Cyperus esculentus); test: Test C preemergence; settings: for Plant response rating (0 to 100), Nutsedge: Rate 500 g/ha, visual evaluation after 12 to 14 days
Procedure, shortened: as §2

[10] = system: johnsongrass (Sorghum halepense); test: Test C preemergence; settings: for Plant response rating (0 to 100), Johnsongrass: Rate 500 g/ha, visual evaluation after 12 to 14 days
Procedure, shortened: as §2

[11] = system: lambsquarters (Chenopodium album); test: Test C preemergence; settings: for Plant response rating (0 to 100), Lambsquarters: Rate 500 g/ha, visual evaluation after 12 to 14 days
Procedure, shortened: as §2

[12] = system: giant foxtail (Setaria faberii); test: Test C preemergence; settings: for Plant response rating (0 to 100), Foxtail, Giant: Rate 500 g/ha, visual evaluation after 12 to 14 days
Procedure, shortened: as §2

[13] = system: crabgrass (Digitaria sanguinalis); test: Test C preemergence; settings: for Plant response rating (0 to 100), Crabgrass: Rate 500 g/ha, visual evaluation after 12 to 14 days
Procedure, shortened: as §2

[14] = system: Surinam grass (Brachiaria decumbens); test: Test C preemergence; settings: for Plant response rating (0 to 100), Surinam grass: Rate 500 g/ha, visual evaluation after 12 to 14 days
Procedure, shortened: as §2

[15] = Rate 125 g/ha, scale 0 to 100, 0 no effect, 100 complete control
[16] = Rate 500 g/ha, scale 0 to 100, 0 is no effect, 100 is complete control, 13 to 15 days
[17] = preemergence, Rate 250 g/ha, scale 0 to 100, 0 no effect, 100 complete control
[18] = preemergence, Rate 62 g/ha, scale 0 to 100
[19] = Rate 250 g/ha, scale 0 to 100, 0 no effect, 100 complete control

CCCC(C)c1ccn(C2OCN(c3cccc(OC(F)F)c3)C2=O)n1 (centres unmarked) [Compound 132]
Plant response rating, Cocklebur [1, 15]: 0 | Plant response rating, Cocklebur [1, 16]: 0 | Plant response rating, Blackgrass [2, 15]: 0 | Plant response rating, Blackgrass [2, 16]: 0 | Plant response rating, Crabgrass [3]: 0 | Plant response rating, Sunflower (Sunflower): 20 | Plant response rating, Kochia (kochia (Kochia scoparia); [15]): 100 | Plant response rating (0 to 100), Kochia (kochia (Kochia scoparia); preemergence): 100 | Plant response rating, Kochia (kochia (Kochia scoparia); [17]): 100 | Plant response rating, Corn (corn (Zea mays); [15]): 10 | Plant response rating, Corn (corn (Zea mays); [18]): 0 | Plant response rating (0 to 100), Corn (corn (Zea mays); preemergence): 90 | Plant response rating, Corn (corn (Zea mays); [17]): 70 | Plant response rating, Cocklebur [4, 15]: 0 | Plant response rating (0 to 100), Cocklebur ([4]; preemergence): 0 | Plant response rating, Cocklebur [4, 17]: 0 | Plant response rating, Bermudagrass [5, 15]: 100 | Plant response rating, Bermudagrass [5, 18]: 100 | Plant response rating (0 to 100 where 0 is no effect and 100 is complete control), Bermudagrass ([5]; preemergence): 100 | Plant response rating, Bermudagrass [5, 17]: 100 | Plant response rating, Morningglory [6, 18]: 0 | Plant response rating (0 to 100), Morningglory ([6]; preemergence): 0 | Plant response rating, Morningglory [6, 17]: 0 | Plant response rating, Goosegrass [7, 15]: 100 | Plant response rating, Goosegrass [7, 18]: 100 | Plant response rating (0 to 100), Goosegrass ([7]; preemergence): 100 | Plant response rating, Goosegrass [7, 17]: 100 | Plant response rating, Soybean (soybean (Glycine max); [15]): 20 | Plant response rating, Soybean (soybean (Glycine max); [18]): 20 | Plant response rating (0 to 100), Soybean (soybean (Glycine max); preemergence): 30 | Plant response rating, Soybean (soybean (Glycine max); [17]): 20 | Plant response rating, Nightshade (Nightshade; Rate 62 g/ha, scale 0 to 100): 0 | Plant response rating, Nightshade (Nightshade; [15]): 0 | Plant response rating, Nightshade (Nightshade; [19]): 20 | Plant response rating, Ragweed, Common [8, 15]: 0 | Plant response rating, Ragweed, Common [8, 18]: 0 | Plant response rating (0 to 100), Ragweed, Common ([8]; preemergence): 0 | Plant response rating, Ragweed, Common [8, 17]: 0 | Plant response rating, Nutsedge [9, 15]: 0 | Plant response rating, Nutsedge [9, 18]: 0 | Plant response rating (0 to 100), Nutsedge ([9]; preemergence): 90 | Plant response rating, Nutsedge [9, 17]: 0 | Plant response rating, Johnsongrass [10, 15]: 80 | Plant response rating, Johnsongrass [10, 18]: 50 | Plant response rating (0 to 100), Johnsongrass ([10]; preemergence): 100 | Plant response rating, Johnsongrass [10, 17]: 100 | Plant response rating, Lambsquarters [11, 15]: 100 | Plant response rating, Lambsquarters [11, 18]: 100 | Plant response rating (0 to 100), Lambsquarters ([11]; preemergence): 100 | Plant response rating, Lambsquarters [11, 17]: 100 | Plant response rating, Foxtail, Giant [12, 15]: 70 | Plant response rating, Foxtail, Giant [12, 18]: 70 | Plant response rating (0 to 100), Foxtail, Giant ([12]; preemergence): 100 | Plant response rating, Foxtail, Giant [12, 17]: 100 | Plant response rating, Crabgrass [13, 15]: 100 | Plant response rating, Crabgrass [13, 18]: 100 | Plant response rating (0 to 100), Crabgrass ([13]; preemergence): 100 | Plant response rating, Crabgrass [13, 17]: 100 | Plant response rating, Surinam grass [14, 15]: 100 | Plant response rating, Surinam grass [14, 18]: 90 | Plant response rating (0 to 100), Surinam grass ([14]; preemergence): 100 | Plant response rating, Surinam grass [14, 17]: 100

CC(C)(C)c1ccn(C2OCN(c3cccc(OC(F)F)c3)C2=O)n1 (centres unmarked) [Compound 133]
Plant response rating, Cocklebur [1, 15]: 10 | Plant response rating, Cocklebur [1, 16]: 30 | Plant response rating, Blackgrass [2, 15]: 0 | Plant response rating, Blackgrass [2, 16]: 0 | Plant response rating, Crabgrass [3]: 40 | Plant response rating, Sunflower (Sunflower): 0 | Plant response rating, Kochia (kochia (Kochia scoparia); [15]): 100 | Plant response rating, Kochia (kochia (Kochia scoparia); [18]): 100 | Plant response rating (0 to 100), Kochia (kochia (Kochia scoparia); preemergence): 100 | Plant response rating, Kochia (kochia (Kochia scoparia); [17]): 100 | Plant response rating, Corn (corn (Zea mays); [18]): 100 | Plant response rating (0 to 100), Corn (corn (Zea mays); preemergence): 100 | Plant response rating, Corn (corn (Zea mays); [17]): 100 | Plant response rating, Cocklebur [4, 15]: 0 | Plant response rating, Cocklebur [4, 18]: 0 | Plant response rating (0 to 100), Cocklebur ([4]; preemergence): 0 | Plant response rating, Cocklebur [4, 17]: 0 | Plant response rating, Bermudagrass [5, 15]: 100 | Plant response rating, Bermudagrass [5, 18]: 100 | Plant response rating (0 to 100 where 0 is no effect and 100 is complete control), Bermudagrass ([5]; preemergence): 100 | Plant response rating, Bermudagrass [5, 17]: 100 | Plant response rating, Morningglory [6, 15]: 0 | Plant response rating, Morningglory [6, 18]: 0 | Plant response rating (0 to 100), Morningglory ([6]; preemergence): 30 | Plant response rating, Morningglory [6, 17]: 20 | Plant response rating, Goosegrass [7, 15]: 100 | Plant response rating, Goosegrass [7, 18]: 100 | Plant response rating (0 to 100), Goosegrass ([7]; preemergence): 100 | Plant response rating, Goosegrass [7, 17]: 100 | Plant response rating, Soybean (soybean (Glycine max); [15]): 0 | Plant response rating, Soybean (soybean (Glycine max); [18]): 0 | Plant response rating (0 to 100), Soybean (soybean (Glycine max); preemergence): 0 | Plant response rating, Soybean (soybean (Glycine max); [17]): 0 | Plant response rating, Nightshade (Nightshade; Rate 62 g/ha, scale 0 to 100): 0 | Plant response rating, Nightshade (Nightshade; [15]): 0 | Plant response rating, Nightshade (Nightshade; [19]): 20 | Plant response rating, Ragweed, Common [8, 15]: 0 | Plant response rating, Ragweed, Common [8, 18]: 0 | Plant response rating (0 to 100), Ragweed, Common ([8]; preemergence): 0 | Plant response rating, Ragweed, Common [8, 17]: 0 | Plant response rating, Nutsedge [9, 18]: 70 | Plant response rating (0 to 100), Nutsedge ([9]; preemergence): 90 | Plant response rating, Nutsedge [9, 17]: 90 | Plant response rating, Johnsongrass [10, 15]: 100 | Plant response rating, Johnsongrass [10, 18]: 80 | Plant response rating (0 to 100), Johnsongrass ([10]; preemergence): 100 | Plant response rating, Johnsongrass [10, 17]: 100 | Plant response rating, Lambsquarters [11, 15]: 100 | Plant response rating, Lambsquarters [11, 18]: 100 | Plant response rating (0 to 100), Lambsquarters ([11]; preemergence): 100 | Plant response rating, Lambsquarters [11, 17]: 100 | Plant response rating, Foxtail, Giant [12, 15]: 100 | Plant response rating, Foxtail, Giant [12, 18]: 90 | Plant response rating (0 to 100), Foxtail, Giant ([12]; preemergence): 100 | Plant response rating, Foxtail, Giant [12, 17]: 100 | Plant response rating, Crabgrass [13, 15]: 100 | Plant response rating, Crabgrass [13, 18]: 100 | Plant response rating (0 to 100), Crabgrass ([13]; preemergence): 100 | Plant response rating, Crabgrass [13, 17]: 100 | Plant response rating, Surinam grass [14, 15]: 100 | Plant response rating, Surinam grass [14, 18]: 100 | Plant response rating (0 to 100), Surinam grass ([14]; preemergence): 100 | Plant response rating, Surinam grass [14, 17]: 100
